The values that follow come from article PMC12624743 (ACS Infectious Diseases, 2025).

≈ marks a conversion by molar mass, not a printed value.

Assay [1] addresses T1, WT N. gonorrhoeae gyrase (Neisseria gonorrhoeae, UniProt P48371).
T1 construct: His; made in house
In words: DNA cleavage assay, WT gyrase. Format: biochemical. As for the experimental part:
(§1) Some experiments replaced MgCl2 with an equivalent concentration of CaCl2 (10 mM), or 1.5 mM ATP was added to assay mixtures.
(§2) Reactions were incubated at 37 °C for 30 min with WT and mutant (GyrA^D90N, GyrA^A92T, GyrA^S91F, GyrA^D95G, or GyrA^S91F/D95G) N. gonorrhoeae gyrase, 10 min with WT N. gonorrhoeae topoisomerase IV, and 20 min with mutant (ParC^D86N, ParC^S88P, ParC^S87N, or ParC^E91G) N. gonorrhoeae topoisomerase IV. Enzyme-DNA cleavage complexes were trapped by adding 2 μL of 5% SDS followed by 2 μL of 250 mM EDTA (pH 8.0). Proteinase K was added (2 μL of a 0.8 mg/mL solution), and reaction mixtures were incubated at 45 °C for 30 min to digest the enzyme. Samples were mixed with 2 μL of loading buffer and heated at 45 °C for 2 min prior to electrophoresis in 1% agarose gels in 40 mM Tris-acetate (pH 8.3), and 2 mM EDTA containing 0.5 μg/mL ethidium bromide. DNA bands were visualized by midrange ultraviolet light and quantified using an Alpha Innotech digital imaging system (Protein Simple). Single-stranded DNA cleavage was monitored by the conversion of negatively supercoiled to nicked plasmid molecules.

Assay [2] has as its system N. gonorrhoeae FA1090-Q1 (GyrA^S91F/D95G, ParC WT). In words: MIC by agar dilution, fluoroquinolone-resistant GyrA^S91F/D95G strain. The assay is classed as cell-based. Particulars: Neisseria gonorrhoeae. As for the experimental part: (§3) Minimum inhibitory concentration (MIC) of test compounds was determined by an agar dilution method, the reference testing method for N. gonorrhoeae according to the standards of the Clinical and Laboratory Standards Institute and the CDC.

In assay [3] the target is N. gonorrhoeae topoisomerase IV ParC^E91G (Neisseria gonorrhoeae, UniProt P48374, E91G). In words: Topoisomerase IV-catalyzed DNA decatenation assay, ParC^E91G. The assay is classed as biochemical. Also on record: His; made in house. As for the experimental part:
All proteins were His-tagged. N. gonorrhoeae WT gyrase (GyrA, GyrB) and topoisomerase IV (ParC, ParE) subunits as well as mutant GyrA^D90N, GyrA^A92T, GyrA^S91F, and GyrA^S91F/D95G gyrase and ParC^D86N and ParC^S88P topoisomerase IV were prepared as described previously. , N. gonorrhoeae mutant GyrA^D95G gyrase and mutant ParC^S87N and ParC^E91G topoisomerase IV were generated using a QuickChange II XL site-directed mutagenesis kit (Agilent Technologies) with custom primers for the desired mutations. Mutant N. gonorrhoeae GyrA and ParC subunits were expressed and purified as described by Ashley et al. with the following modifications to optimize protein expression and lysis: (1) GyrA^D95G was expressed for 2.5 h and ParC^S87N and ParC^E91G were expressed for 3 h before harvesting, and (2) cells were lysed by sonication using a digital sonifier (Branson). The identities of all constructs were confirmed by DNA sequencing, and all enzymes were stored at −80 °C. In all assays, N. gonorrhoeae gyrase or topoisomerase IV was used as a 1:1 GyrA:GyrB or ParC:ParE mixture, respectively, and the stated enzyme concentration reflects that of the holoenzyme (A2B2). […]

Assay [4] concerns the target T1, WT N. gonorrhoeae gyrase. In words: Gyrase-catalyzed DNA supercoiling assay, WT. The assay is classed as biochemical. Particulars: relaxed pBR322, 1.5 mM ATP, read-out: IC50, inhibition of DNA supercoiling. How it is done:
All proteins were His-tagged. N. gonorrhoeae WT gyrase (GyrA, GyrB) and topoisomerase IV (ParC, ParE) subunits as well as mutant GyrA^D90N, GyrA^A92T, GyrA^S91F, and GyrA^S91F/D95G gyrase and ParC^D86N and ParC^S88P topoisomerase IV were prepared as described previously. , N. gonorrhoeae mutant GyrA^D95G gyrase and mutant ParC^S87N and ParC^E91G topoisomerase IV were generated using a QuickChange II XL site-directed mutagenesis kit (Agilent Technologies) with custom primers for the desired mutations. […] The identities of all constructs were confirmed by DNA sequencing, and all enzymes were stored at −80 °C. In all assays, N. gonorrhoeae gyrase or topoisomerase IV was used as a 1:1 GyrA:GyrB or ParC:ParE mixture, respectively, and the stated enzyme concentration reflects that of the holoenzyme (A2B2).
Samples were mixed with 2 μL of loading dye [60% sucrose, 10 mM Tris–HCl (pH 7.9), 0.5% bromophenol blue, and 0.5% xylene cyanol FF] and incubated at 45 °C for 2 min before being subjected to electrophoresis on 1% agarose gels in 100 mM Tris-borate (pH 8.3) and 2 mM EDTA. […] DNA bands were visualized with medium-range ultraviolet light and quantified using an Alpha Innotech digital imaging system (Protein Simple). DNA supercoiling was monitored by the conversion of relaxed to supercoiled plasmid.

Assay [5] has as its system N. gonorrhoeae FA1090 (ATCC 700825). In words: MIC by agar dilution, parental strain FA1090. Format: cell-based. Particulars: Neisseria gonorrhoeae, ATCC700825, parental strain FA1090, GyrA WT / ParC WT. As for the experimental part:
A series of isogenic N. gonorrhoeae strains was constructed that carried the specific target mutations GyrA^A92T or GyrA^D90N either alone or in combination with ParC^D86N or GyrA^S91F/D95G in a ciprofloxacin-susceptible strain, FA1090 (ATCC 700825).
All N. gonorrhoeae isolates were cultured and grown on GC agar plates or in fastidious broth (Remel, 07664). Minimum inhibitory concentration (MIC) of test compounds was determined by an agar dilution method, the reference testing method for N. gonorrhoeae according to the standards of the Clinical and Laboratory Standards Institute and the CDC. MIC values were determined after incubation at 37 °C for 48 h in 5% CO2.

Assay [6] has as its target T2, N. gonorrhoeae gyrase GyrA^A92T (Neisseria gonorrhoeae, UniProt P48371, A92T).
T2 construct: His; made in house
In words: DNA cleavage assay, GyrA^A92T gyrase. Format: biochemical. How it is done: as §1, §2

Assay [7] concerns N. gonorrhoeae FA1090E-1 (GyrA^A92T/ParC^WT). In words: MIC by agar dilution, GyrA^A92T strain. The assay is classed as cell-based. The settings on record: Neisseria gonorrhoeae. As for the experimental part: The purified isolate was confirmed to harbor GyrA^A92T as the single target mutation by DNA sequencing. This strain was designated FA1090E-1 (GyrA^A92T).
as §3
Background: In agar dilution, organisms are placed on agar that contains the substance at set levels.

T1 sequence (P48371 whole entry): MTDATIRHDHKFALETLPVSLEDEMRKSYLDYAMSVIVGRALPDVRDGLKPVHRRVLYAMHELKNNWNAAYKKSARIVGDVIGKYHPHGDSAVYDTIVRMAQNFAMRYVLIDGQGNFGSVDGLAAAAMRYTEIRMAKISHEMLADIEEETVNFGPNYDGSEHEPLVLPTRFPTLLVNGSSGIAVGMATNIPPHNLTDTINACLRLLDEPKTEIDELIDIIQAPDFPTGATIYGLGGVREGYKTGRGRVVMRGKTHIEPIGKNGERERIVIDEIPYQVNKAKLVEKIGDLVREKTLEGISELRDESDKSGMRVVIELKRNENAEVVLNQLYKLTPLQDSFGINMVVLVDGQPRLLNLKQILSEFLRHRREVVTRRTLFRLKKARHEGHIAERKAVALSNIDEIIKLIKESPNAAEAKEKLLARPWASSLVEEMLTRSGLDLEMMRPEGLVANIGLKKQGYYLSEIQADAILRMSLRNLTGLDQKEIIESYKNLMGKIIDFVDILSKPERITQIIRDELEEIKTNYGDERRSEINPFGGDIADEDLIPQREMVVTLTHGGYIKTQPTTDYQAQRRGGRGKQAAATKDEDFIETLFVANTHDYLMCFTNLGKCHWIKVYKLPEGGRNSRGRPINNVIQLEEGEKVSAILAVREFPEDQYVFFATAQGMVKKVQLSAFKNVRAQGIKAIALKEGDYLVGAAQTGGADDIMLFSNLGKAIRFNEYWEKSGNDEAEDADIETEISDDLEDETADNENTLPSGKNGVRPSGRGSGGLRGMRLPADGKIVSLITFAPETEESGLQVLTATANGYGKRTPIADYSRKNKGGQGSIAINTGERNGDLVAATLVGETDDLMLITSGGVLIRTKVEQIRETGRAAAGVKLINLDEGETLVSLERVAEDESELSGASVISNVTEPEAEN
T1 sequence (P22118 whole entry partner): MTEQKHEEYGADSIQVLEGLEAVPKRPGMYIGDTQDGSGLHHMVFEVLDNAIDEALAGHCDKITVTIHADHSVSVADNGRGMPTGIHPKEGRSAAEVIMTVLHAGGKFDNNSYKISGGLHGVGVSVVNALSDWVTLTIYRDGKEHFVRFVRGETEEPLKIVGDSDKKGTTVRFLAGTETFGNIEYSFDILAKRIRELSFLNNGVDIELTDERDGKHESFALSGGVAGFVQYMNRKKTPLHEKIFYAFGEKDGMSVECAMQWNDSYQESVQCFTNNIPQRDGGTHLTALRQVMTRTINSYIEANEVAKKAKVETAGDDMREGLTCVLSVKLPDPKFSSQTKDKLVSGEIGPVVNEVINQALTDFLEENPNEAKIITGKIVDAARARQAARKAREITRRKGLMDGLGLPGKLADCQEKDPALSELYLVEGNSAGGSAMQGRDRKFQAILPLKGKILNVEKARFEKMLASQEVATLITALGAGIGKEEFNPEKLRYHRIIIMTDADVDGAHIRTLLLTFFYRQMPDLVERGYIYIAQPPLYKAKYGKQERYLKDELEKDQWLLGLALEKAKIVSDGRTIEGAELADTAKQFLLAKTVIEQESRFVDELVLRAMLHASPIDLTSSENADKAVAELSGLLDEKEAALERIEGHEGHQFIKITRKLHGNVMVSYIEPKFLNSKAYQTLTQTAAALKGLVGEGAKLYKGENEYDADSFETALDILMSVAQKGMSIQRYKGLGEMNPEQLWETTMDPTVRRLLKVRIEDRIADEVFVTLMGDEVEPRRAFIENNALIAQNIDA
T2 sequence (P48371 whole entry A92T): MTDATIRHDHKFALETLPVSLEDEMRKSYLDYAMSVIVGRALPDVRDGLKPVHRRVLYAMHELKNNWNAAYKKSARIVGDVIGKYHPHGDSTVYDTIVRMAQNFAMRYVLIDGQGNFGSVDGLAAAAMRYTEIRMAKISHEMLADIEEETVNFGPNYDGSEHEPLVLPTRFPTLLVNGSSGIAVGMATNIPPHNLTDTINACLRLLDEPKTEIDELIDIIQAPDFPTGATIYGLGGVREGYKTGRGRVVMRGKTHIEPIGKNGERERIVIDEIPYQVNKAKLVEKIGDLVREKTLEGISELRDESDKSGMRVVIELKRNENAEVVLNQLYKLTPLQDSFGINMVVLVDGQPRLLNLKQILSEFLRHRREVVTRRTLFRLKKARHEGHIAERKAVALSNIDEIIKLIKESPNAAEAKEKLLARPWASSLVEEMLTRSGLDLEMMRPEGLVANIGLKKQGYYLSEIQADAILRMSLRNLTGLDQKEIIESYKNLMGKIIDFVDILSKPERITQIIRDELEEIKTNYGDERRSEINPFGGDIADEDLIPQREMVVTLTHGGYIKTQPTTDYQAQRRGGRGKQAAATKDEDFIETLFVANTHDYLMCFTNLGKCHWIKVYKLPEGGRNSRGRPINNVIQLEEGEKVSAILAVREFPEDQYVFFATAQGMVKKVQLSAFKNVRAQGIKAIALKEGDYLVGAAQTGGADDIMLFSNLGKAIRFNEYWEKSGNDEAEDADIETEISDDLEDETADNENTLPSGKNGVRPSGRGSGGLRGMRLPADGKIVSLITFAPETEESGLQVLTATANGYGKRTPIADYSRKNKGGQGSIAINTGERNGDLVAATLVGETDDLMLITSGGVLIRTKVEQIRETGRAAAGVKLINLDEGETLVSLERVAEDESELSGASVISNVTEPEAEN
T2 sequence (P22118 whole entry partner): as the sequence (P22118 whole entry partner) above
Chain of N. gonorrhoeae topoisomerase IV ParC^E91G (P48374 whole entry E91G): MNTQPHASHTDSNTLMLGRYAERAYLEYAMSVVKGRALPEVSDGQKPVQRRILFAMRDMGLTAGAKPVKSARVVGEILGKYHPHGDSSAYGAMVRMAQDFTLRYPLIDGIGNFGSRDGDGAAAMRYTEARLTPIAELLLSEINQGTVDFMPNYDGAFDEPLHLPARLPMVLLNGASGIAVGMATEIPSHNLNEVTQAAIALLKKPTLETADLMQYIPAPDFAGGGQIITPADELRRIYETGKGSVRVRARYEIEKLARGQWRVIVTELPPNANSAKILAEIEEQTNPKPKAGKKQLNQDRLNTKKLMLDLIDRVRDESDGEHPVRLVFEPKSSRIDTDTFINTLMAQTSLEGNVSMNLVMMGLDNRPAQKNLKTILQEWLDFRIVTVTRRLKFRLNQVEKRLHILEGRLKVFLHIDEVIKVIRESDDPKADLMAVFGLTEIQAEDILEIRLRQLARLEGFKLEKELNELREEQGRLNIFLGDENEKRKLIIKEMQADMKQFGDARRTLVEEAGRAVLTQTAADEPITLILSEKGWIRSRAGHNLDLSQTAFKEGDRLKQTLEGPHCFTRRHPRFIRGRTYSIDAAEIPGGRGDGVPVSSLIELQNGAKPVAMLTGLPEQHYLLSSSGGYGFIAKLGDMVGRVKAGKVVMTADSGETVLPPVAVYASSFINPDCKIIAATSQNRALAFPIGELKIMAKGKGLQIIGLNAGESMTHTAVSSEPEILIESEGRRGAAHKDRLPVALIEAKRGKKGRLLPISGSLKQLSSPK

In general, MIC refers to the lowest concentration that inhibits growth of the organism. Broadly, the IC50 is the midpoint of a concentration-inhibition curve. As to `O=c1ccc2ncc(=O)n3c2n1C[C@H]3CN1CCC(NCc2cc3c(cn2)OCCC3)CC1` [gepotidacin], the “effect of ATP on potency and maximal DNA cleavage” value at WT N. gonorrhoeae gyrase [1] (1.5 mM ATP) is “little effect”. Moreover, the “effect on double-stranded DNA scission” value on WT N. gonorrhoeae gyrase [1] (Mg2+ replaced with Ca2+) is on record as “little effect”. Also, the EC50 worked out at 900 ± 300 nM at WT N. gonorrhoeae gyrase [1] (Mg2+, no ATP, read-out: CC50, single-stranded DNA cleavage) and 500 nM in assay [6] (GyrA A92T gyrase, read-out: CC50, single-stranded DNA cleavage). Besides, the “Adj-Max Cleavage, single-stranded DNA breaks” value is on record as roughly 17.1% on WT N. gonorrhoeae gyrase [1] (adjusted for baseline cleavage) and 4.9% in assay [6]. In addition, the “additional enhancement of double-stranded DNA breaks above baseline” value at WT N. gonorrhoeae gyrase [1] (up to 200 μM gepotidacin, up to 180 min) was “not observed”. The MIC in assay [2] stood at 0.125 µg/mL (≈ 0.279 µM); in assay [5] it was 0.125 µg/mL; in assay [7] it was 2 µg/mL (≈ 4.46 µM). Moreover, the half-maximal inhibitory concentration (IC50) in assay [3] amounted to 1500 nM; at WT N. gonorrhoeae gyrase [4], 5100 ± 2300 nM. The “fold decrease of adjusted maximal DNA cleavage vs WT” value in assay [6] (GyrA A92T vs WT) is roughly 3.5 fold.
